# Laboratory results: patent US8664237B2 (The Johns Hopkins University, priority 2008, dated 2014)
# Experiments:
# [1] = test system: IB3-1 cells; assay: Fura-2 microscope calcium measurement in IB3-1 cells; format: cell-based, human; conditions: for effect of preincubation on the spiperone-induced Ca2+ increase: inhibitor given before spiperone; for spiperone Ca2+ response after prior addition of the analog: analog added prior to spiperone; for increase of intracellular Ca2+ / Ca2+ release: spiperone analogs, solution not stated
# Description: . A microscope-based fluorescence Ca^2+ measurement system was utilized in this study. First IB3-1 cells grown on a coverglass were bathed in the ECaT Ringer's which was used for the screen. […] In order to ascertain the origin of this sustained increase the experiment was repeated except with Ca^2+-free ECaT Ringer's solution, (See FIG. 8).
# Using normal Ringers, a study was undertaken to determine whether the source of the increase in cytoplasmic Ca^2+ was indeed the endoplasmic reticulum (ER). As part of the normal Ca^2+ transit system across the ER, the Ca^2+-ATPase pumps Ca^2+ from the cytosol to the ER uphill against the concentration gradient. Other channels continue to cycle Ca^2+ from ER back to cytosol. Thapsigargin blocks the Ca^2+-ATPase, inhibiting the uphill uptake. […]
# Phospholipase C (PLC) is an intracellular enzyme that participates in calcium signaling pathways. […]. There are two major molecules that activate PLC pathways to release Ca^2+ from the ER. One is the G-protein coupled receptors. The second is the protein tyrosine kinase […]. […]. […] (FIG. 12G is the summary data of genistein treatment.) Lavendustin A is another protein tyrosine kinase inhibitor. […].
# (§1) Cells were seeded on the collagen-coated cover glass for 48 h. Cell Ca^2+ was measured with a dual excitation wavelength microscope system. Fura-2 fluorescence was excited at 340 nm and 380 nm with xenon light. Fluorescence was measured at 510 nm emission wavelength. Data was processed and analyzed using IPLab 4.0 software. Fluorescence data of each experiment were normalized to the individual basal fluorescence value ΔF/F0=(F−F0)/F0 to bring all the response curves to the same pretreatment starting point.
# [2] = test system: Calu-3 cells; assay: Short-circuit current measurement (Cl- secretion), Calu-3 monolayers; format: cell-based, human; conditions: for effect of channel blocker on spiperone-induced sustained Cl- release / effect of channel blocker on spiperone-induced transient Cl-: amiloride present; for Cl- current (short circuit current): normal Ringer's, Na+ absorption blocked with amiloride
# Procedure: (§2) An experiment was carried out to establish that the spiperone-induced increase of Ca^2+ would produce an increase in Cl^− transport relevant to CF, and that it would do so in CF relevant epithelial cells. Calu-3 and CFBE41o-cell monolayers were cultured on permeable filter support and “short circuit current” measurements were performed to evaluate the current produced by Cl^− in these cells.
# (§3) Na^+ is a positively charged ion and its absorption would interfere with the short circuit measurement for Cl^− secretion. Therefore, in normal Ringer's solution, Na^+ absorption across the cell membrane was blocked with amiloride. Cell monolayers were then exposed to the two relevant compounds: niflumic acid (NFA), which is a non-selective CaCCs blocker or to CFTRinh-172, which is a specific CFTR blocker.
# (§4) Calu-3 and CFBE41o-cells were cultured on Snapwell inserts until they formed a tight monolayer as monitored by measuring the transepithelial resistance. The bottom of the monolayer was taken out, mounted on the Ussing chamber and buffered by the testing solutions. The short-circuit current was measured by a VCC MC6 multichannel voltage/current clamp (Physiologic Instruments, San Diego, Calif.). Data were recorded and analyzed by Acquire and Analyze software.
# [3] = 24 weeks of treatment, phase III trial, inhaled; cited from earlier work
# [4] = test system: CFBE41o- cells; assay: Short-circuit current measurement (Cl- secretion), CFBE41o- monolayers; format: cell-based, human; conditions: for Cl- secretion (short circuit current): normal Ringer's, amiloride
# Procedure: as §2, §3, §4
# [5] = test system: IB3-1 cells; assay: Compound screening for calcium enhancers (Fura-2 fluorescence plate reader)
# Description: Thus for the ECaT Ringers, we eliminated Na^+ from the solution and replaced it completely by N-methyl-D-glucamine (NMDG) to maintain the solution osmolality to favor Ca^2+ for entry through the P2X receptor. We were searching for compounds that activate the P2X receptor channel or other Ca^2+ entry channels, as well as compounds that bind to membrane or cellular proteins which are involved in intracellular Ca^2+ regulation.
# Compounds were selected as potential hits if their change of fluorescence ratio fell within 3 SD of those obtained for zinc (ratio), and larger than that recorded for DMSO (ratio) +3SD. The average Z factor of all 25 plates is 0.6 for the 15 min detection. Hits were solely based on the change in the fluorescence ratio. Any compound that was highly auto-fluorescent was not considered further.
# We further evaluated 37 hits manually using the Fluorescence Plate Reader system. […] Following this initial vetting process, the half-maximal effective concentration (EC50) was determined of each of the remaining 19 molecules. […] Compound Library: Library MSSP (Microsource Discovery Inc) was our source for compounds for the primary screening. The compounds were known bioactive compounds and natural products and their derivatives. The library contained 2,000 compounds on twenty-five 96-well plates, with 80 compounds tested per plate. In the master plates, each compound was suspended in DMSO at a concentration of 10 mM. A set of 96-well plates of the library in a concentration of 2 mM in DMSO was made prior to the screening.
# Screening Procedure: The screening was performed by the Johns Hopkins University High Throughput Biology Center Chemcore. […] The fluorescence ratio was measured in ECaT Ringer's solution by a Tecan Safire Fluorescence Plate Reader. […] The fluorescence ratio was measured again immediately after adding the compounds. The final fluorescence detection was done 15 min after the second detection in order to find compounds which stimulate the sustained Ca^2+ increase.
# [6] = test system: 5-HT receptor; conditions: canine tracheal epithelia, another study; cited from earlier work
# [7] = molecular target: 5-HT2 receptor (Homo sapiens, UniProt P28223); conditions: antagonists; cited from earlier work
# Sequence of 5-HT2 receptor (P28223 whole entry): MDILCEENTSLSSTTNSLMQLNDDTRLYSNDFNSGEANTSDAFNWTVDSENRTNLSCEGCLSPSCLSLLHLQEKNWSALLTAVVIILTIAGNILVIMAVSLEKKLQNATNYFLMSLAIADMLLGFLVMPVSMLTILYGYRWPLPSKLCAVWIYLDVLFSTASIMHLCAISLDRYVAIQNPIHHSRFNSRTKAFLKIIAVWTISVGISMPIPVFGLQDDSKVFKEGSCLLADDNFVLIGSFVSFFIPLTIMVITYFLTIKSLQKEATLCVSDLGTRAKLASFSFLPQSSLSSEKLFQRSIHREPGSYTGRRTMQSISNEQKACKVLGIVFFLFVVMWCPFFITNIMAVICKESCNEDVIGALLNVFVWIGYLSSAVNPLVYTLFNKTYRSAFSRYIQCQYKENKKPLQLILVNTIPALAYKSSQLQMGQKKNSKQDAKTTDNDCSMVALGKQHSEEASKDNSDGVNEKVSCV
# [8] = molecular target: dopamine D2 receptor (Homo sapiens, UniProt P14416); conditions: cited from earlier work
# Sequence of dopamine D2 receptor (P14416 whole entry, species assumed): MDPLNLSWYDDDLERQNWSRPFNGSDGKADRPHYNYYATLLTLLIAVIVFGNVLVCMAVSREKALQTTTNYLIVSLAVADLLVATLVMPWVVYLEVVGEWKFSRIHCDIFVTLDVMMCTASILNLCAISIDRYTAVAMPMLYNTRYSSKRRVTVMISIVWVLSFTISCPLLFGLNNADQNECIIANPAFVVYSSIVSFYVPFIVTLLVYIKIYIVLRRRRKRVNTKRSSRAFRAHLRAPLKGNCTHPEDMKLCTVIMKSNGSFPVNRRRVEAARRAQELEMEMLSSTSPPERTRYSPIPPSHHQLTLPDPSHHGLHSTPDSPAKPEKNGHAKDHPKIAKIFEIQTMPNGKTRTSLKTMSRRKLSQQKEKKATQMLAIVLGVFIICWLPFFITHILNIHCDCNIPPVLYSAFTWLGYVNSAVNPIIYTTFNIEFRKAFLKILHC
# [9] = test system: NHBE; assay: Fura-2 microscope calcium measurement in NHBE primary cells; format: cell-based, human; conditions: NHBE primary culture; Ca2+-free Ringers
# Procedure: as §1
# [10] = test system: nasal epithelium of CFKO mice; assay: Mouse nasal potential difference, CF (double transgenic CFKO) mice
# Description: In order to allow for later hyperpolarization from chloride secretion, their nasal epithelia were perfused with baseline Ringers with amiloride added to block the epithelial Na^+ channel. For the next perfusion, the Cl^− was removed by substituting Na^+ gluconate in the baseline Ringer's solution (FIG. 8), then removed Cl^− from the mucosa by perfusing the nare with that Ringer's.
# Nasal Potential Difference (NPD): All mice were anesthetized with an IP injection of a ketamine and xylazine mixture (100 mcg/10 mcg per gram of body weight). […] Briefly, a high impedance voltmeter (World Precision Instruments, Sarasota, Fla.) was connected by silver-chloride pellet electrodes to an exploring nasal bridge and a reference subcutaneous bridge. The nasal bridge, a single polyethylene tube (PE10, 0.28 mm ID, Clay-Adams, B D, Sparks, Md.) was pulled to one-half its original diameter and cut at a 45 degree angle. The tubing was marked and inserted 5 mm from the tip of the nare. A paper tape flag indicated position and orientation of the tip. The subcutaneous bridge was a 25 GA Butterfly® (Abbott, Chicago, Ill.) needle containing Ringer's solution inserted subcutaneously in the right abdominal wall. Each solution was warmed to 37° C. and perfused to the nare for at least 3 minutes at 5 micro liters per minute using a perfusion pump. Following the procedure, the oral cavity was gently suctioned of perfusate and the mice were recovered to their cages. Voltmeter data (mV) was recorded by a PowerLab A/D converter connected to a PC running Chart software at 20 samples per second (AD Instruments, Colorado Springs, Colo.). A minimum of 400 data points (˜20 seconds) were used to calculate the mean voltage values.
# [11] = test system: Calu-3 cells; assay: Fura-2 microscope calcium measurement in Calu-3 cells; format: cell-based, human; conditions: Calu-3 non-CF; Ca2+-free Ringers
# Procedure: as §1
# [12] = test system: nasal epithelia of wild-type (C57B1/6) mice; assay: Mouse nasal potential difference, wild-type C57B1/6 mice; conditions: after elimination of mucosal Cl-
# Description: Animals: The studies conducted were approved by the Johns Hopkins University Animal Care and Use Committee. […] Nasal Potential Difference (NPD): All mice were anesthetized with an IP injection of a ketamine and xylazine mixture (100 mcg/10 mcg per gram of body weight). […] Briefly, a high impedance voltmeter (World Precision Instruments, Sarasota, Fla.) was connected by silver-chloride pellet electrodes to an exploring nasal bridge and a reference subcutaneous bridge. The nasal bridge, a single polyethylene tube (PE10, 0.28 mm ID, Clay-Adams, B D, Sparks, Md.) was pulled to one-half its original diameter and cut at a 45 degree angle. The tubing was marked and inserted 5 mm from the tip of the nare. A paper tape flag indicated position and orientation of the tip. The subcutaneous bridge was a 25 GA Butterfly® (Abbott, Chicago, Ill.) needle containing Ringer's solution inserted subcutaneously in the right abdominal wall. Each solution was warmed to 37° C. and perfused to the nare for at least 3 minutes at 5 micro liters per minute using a perfusion pump. Following the procedure, the oral cavity was gently suctioned of perfusate and the mice were recovered to their cages. Voltmeter data (mV) was recorded by a PowerLab A/D converter connected to a PC running Chart software at 20 samples per second (AD Instruments, Colorado Springs, Colo.). […]
# [13] = test system: CFBE41o- cells; assay: Fura-2 microscope calcium measurement in CFBE41o- cells; format: cell-based, human; conditions: CFBE41o- CF; Ca2+-free Ringers
# Procedure: as §1
structure (smiles),measurement,setting,value
NCCOB(c1ccccc1)c1ccccc1 [2APB],effect on the spiperone induced Ca2+ release from ER,"[1]; 100 μM, 30 minutes incubation, data not shown",totally blocked
O=C(O)c1ccc(/C=C2\SC(=S)N(c3cccc(C(F)(F)F)c3)C2=O)cc1 [CFTRinh-172],effect of channel blocker on spiperone-induced sustained Cl- release,[2],totally blocked
same,effect of channel blocker on spiperone-induced transient Cl-,[2],reduced
"Nc1ccn([C@H]2C[C@H](O)[C@@H](COP(=O)(O)OP(=O)(O)OP(=O)(O)OP(=O)(O)OC[C@H]3O[C@@H](n4ccc(=O)[nH]c4=O)[C@H](O)[C@@H]3O)O2)c(=O)n1 [Denufosol, denufosol]",improvement in lung function,[3],2.5%
"O=C(O)c1cccnc1Nc1cccc(C(F)(F)F)c1 [NFA, niflumic acid]",effect of channel blocker on spiperone-induced sustained Cl- release,[2],totally blocked
same,effect of channel blocker on spiperone-induced transient Cl-,[2],reduced
same,effect of CaCC blocker on spiperone's effect on Cl- secretion,[4],reduced significantly
"Cc1ccc(C(=O)Nc2ccc(S(=O)(=O)O)c3cc(S(=O)(=O)O)cc(S(=O)(=O)O)c23)cc1NC(=O)c1cccc(NC(=O)Nc2cccc(C(=O)Nc3cc(C(=O)Nc4ccc(S(=O)(=O)O)c5cc(S(=O)(=O)O)cc(S(=O)(=O)O)c45)ccc3C)c2)c1 [Suramin, suramin]",effect of preincubation on the spiperone-induced Ca2+ increase,[1],did not reduce
COc1ccc2c(c1)CC[C@@H]1[C@@H]2CC[C@]2(C)[C@@H](NCCCCCCN3C(=O)C=CC3=O)CC[C@@H]12 [U73122],effect of preincubation on the spiperone-induced Ca2+ increase,[1],diminished
COc1ccc2c(c1)CC[C@@H]1[C@@H]2CC[C@]2(C)C(NCCCCCCN3C(=O)CCC3=O)CC[C@@H]12 (stereo partly shown) [U73433],effect of preincubation on the spiperone-induced Ca2+ increase,[1],did not
"[Zn] [Zinc, zinc]",increase in cytoplasmic Ca2+ (change in fluorescence ratio),"[5]; ECaT Ringer's, plate reader",long lasting increase in cytoplasmic Ca^2+
O=c1c(-c2ccc(O)cc2)coc2cc(O)cc(O)c12 [genistein],effect of preincubation on the spiperone-induced Ca2+ increase,[1],partially blocked
O=C(CCCN1CCC(O)(c2ccc(Cl)cc2)CC1)c1ccc(F)cc1 [haloperidol],effect on spiperone-stimulated transepithelial Cl- currents,[2]; analog given before spiperone,did not prevent spiperone from stimulating transepithelial Cl^− currents
same,Cl- current (short circuit current),[2],did not stimulate the Cl^− current
same,spiperone Ca2+ response after prior addition of the analog,[1]; Ca2+-free normal Ringer's,spiperone was still able to stimulate a transient increase in Ca^2+
same,increase of intracellular Ca2+ / Ca2+ release,[1],did not release Ca^2+
O=C(c1ccc(F)cc1)C1CCN(CCn2c(=O)[nH]c3ccccc3c2=O)CC1 [ketanserin],"effect on 5-HT effects (inhibited Na+ absorption, stimulated Cl- secretion)",[6],blocked those effects
same,affinity for the 5-HT2 receptor,[7],high affinity
same,antagonism of the dopamine receptor,[8],very weakly antagonistic
same,spiperone Ca2+ response after prior addition of the analog,[1]; Ca2+-free normal Ringer's,spiperone was still able to stimulate a transient increase in Ca^2+
same,increase of intracellular Ca2+ / Ca2+ release,[1],did not increase intracellular Ca^2+
O=C(O)c1cc(N(Cc2ccccc2O)Cc2cc(O)ccc2O)ccc1O [lavendustin A],effect on the increase in Ca2+ induced by spiperone,"[1]; 10 μM, data not shown",significantly diminished
O=C(CCCN1CCC2(CC1)C(=O)NCN2c1ccccc1)c1ccc(F)cc1 [spiperone],change in Ca2+,[9],transient increase in Ca^2+
same,nasal potential difference / Cl- conductance,"[10]; 1 μM in Zero Cl- baseline Ringer's, after amiloride, nasal perfusion",hyperpolarized the mouse nasal potential significantly
same,nasal potential difference,"[10]; 1 μM, after 19 min of sustained perfusion",remained significantly hyperpolarized
same,nasal potential difference / Cl- conductance,[10]; subsequent increase to 20 μM,did not boost Cl^− conductance
same,affinity for the 5-HT2 receptor,[7],high affinity
same,change in Ca2+,[11],transient increase in Ca^2+
same,Cl- secretion,"[2]; 20 μM, monolayers",stimulated Cl^− secretion
same,amount of spiperone required to induce Cl- secretion,"[2]; ""our study"", airway epithelial cells",at least 1 μmol
same,Cl- current (short circuit current),[2],a transient and then a sustained Cl^− current
same,nasal potential difference / Cl- conductance,[12],did not induce any further hyperpolarization
same,Cl- secretion,"[4]; 20 μM, monolayers",stimulated Cl^− secretion
same,Cl- secretion (short circuit current),[4],only a transient Cl^− secretion
same,Cl- transit on spiperone applied after thapsigargin,[4]; subsequent to thapsigargin,failed to stimulate any additional Cl^− transit
same,affinity for the dopamine D2 receptor,[8]; antagonists,high affinity
same,spiperone concentrations at which the Ca2+ stimulation is reduced,"[5]; higher concentrations, inhibition",> 50 µM
same,spiperone concentrations that stimulate cytoplasmic Ca2+,"[5]; lower concentrations, activation",less than 50 μM
same,change in Ca2+,[13],transient increase in Ca^2+
same,change in cytoplasmic Ca2+,[1]; Ca2+-free ECaT Ringer's,only a transient increase in cytoplasmic Ca^2+
same,change in cytoplasmic Ca2+,[1]; Ca2+-free normal Ringer's,only a transient increase in Ca^2+
same,change in cytoplasmic Ca2+,[1]; ECaT Ringer's,sustained increase in Ca^2+
same,cytosolic Ca2+ response to thapsigargin after spiperone,"[1]; cells treated with spiperone before thapsigargin, normal Ringers",no increase in cytosolic Ca^2+
same,change in cytoplasmic Ca2+,[1]; normal Ringer's,only a transient increase in Ca^2+
C/C=C(/C)C(=O)O[C@H]1C(C)=C2[C@H]([C@@H]1OC(=O)CCCCCCC)[C@@](C)(OC(C)=O)C[C@H](OC(=O)CCC)[C@@]1(O)[C@H]2OC(=O)[C@@]1(C)O [thapsigargin],Cl- secretion (short circuit current),[4],transient increase in Cl^− secretion
same,change in cytoplasmic Ca2+,[1]; normal Ringer's,net increase in Ca^2+ in the cytosol
